Test results from ChEMBL document CHEMBL2380212, “Synthesis, single crystal and antitumor activities of benzimidazole-quinazoline hybrids” (Bioorg Med Chem Lett, 2013).

Key:
PC-3 = test: Cytotoxicity against human PC3 cells at 10 uM after 48 hrs by SRB assay; assay type: functional; details: PC-3, 48 h, read-out: GI
M14 = test: Cytotoxicity against human M14 cells at 10 uM after 48 hrs by SRB assay; assay type: functional; details: M14, 48 h, read-out: GI
SNB-19 = test: Cytotoxicity against human SNB19 cells at 10 uM after 48 hrs by SRB assay; assay type: functional; details: SNB-19, 48 h, read-out: GI
HL-60(TB) = test: Cytotoxicity against human HL-60(TB) cells at 10 uM after 48 hrs by SRB assay; assay type: functional; details: HL-60, 48 h, read-out: GI
NCI-H23 = test: Cytotoxicity against human NCI-H23 cells at 10 uM after 48 hrs by SRB assay; assay type: functional; details: NCI-H23, 48 h, read-out: GI
SNB-75 = test: Cytotoxicity against human SNB75 cells at 10 uM after 48 hrs by SRB assay; assay type: functional; details: SNB-75, 48 h, read-out: GI
MDA-MB-435 = test: Cytotoxicity against human MDA-MB-435 cells at 10 uM after 48 hrs by SRB assay; assay type: functional; details: MDA-MB-435, 48 h, read-out: GI
SK-MEL-5 = test: Cytotoxicity against human SK-MEL-5 cells at 10 uM after 48 hrs by SRB assay; assay type: functional; details: SK-MEL-5, 48 h, read-out: GI
KM12 = test: Cytotoxicity against human KM12 cells at 10 uM after 48 hrs by SRB assay; assay type: functional; details: KM12, 48 h, read-out: GI
MDA-MB-468 = test: Cytotoxicity against human MDA-MB-468 cells at 10 uM after 48 hrs by SRB assay; assay type: functional; details: MDA-MB-468, 48 h, read-out: GI
COLO 205 = test: Cytotoxicity against human COLO205 cells at 10 uM after 48 hrs by SRB assay; assay type: functional; details: COLO 205, 48 h, read-out: GI
SW-620 = test: Cytotoxicity against human SW620 cells at 10 uM after 48 hrs by SRB assay; assay type: functional; details: SW-620, 48 h, read-out: GI
786-0 = test: Cytotoxicity against human 786-0 cells at 10 uM after 48 hrs by SRB assay; assay type: functional; details: 786-0, 48 h, read-out: GI
ACHN = test: Cytotoxicity against human ACHN cells at 10 uM after 48 hrs by SRB assay; assay type: functional; details: read-out: GI
SR = test: Cytotoxicity against human SR cells at 10 uM after 48 hrs by SRB assay; assay type: functional; details: read-out: GI
T47D = test: Cytotoxicity against human T47D cells at 10 uM after 48 hrs by SRB assay; assay type: functional; details: read-out: GI
IGROV-1 = test: Cytotoxicity against human IGROV1 cells at 10 uM after 48 hrs by SRB assay; assay type: functional; details: IGROV-1, 48 h, read-out: GI
[1] = Cytotoxicity against human EKVX cells at 10 uM after 48 hrs by SRB assay; assay type: functional; details: read-out: GI
OVCAR-5 = test: Cytotoxicity against human OVCAR5 cells at 10 uM after 48 hrs by SRB assay; assay type: functional; details: OVCAR-5, 48 h, read-out: GI
UO-31 = test: Cytotoxicity against human UO31 cells at 10 uM after 48 hrs by SRB assay; assay type: functional; details: UO-31, 48 h, read-out: GI
NCI-H226 = test: Cytotoxicity against human NCI-H226 cells at 10 uM after 48 hrs by SRB assay; assay type: functional; details: NCI-H226, 48 h, read-out: GI
HCT-116 = test: Cytotoxicity against human HCT116 cells at 10 uM after 48 hrs by SRB assay; assay type: functional; details: HCT-116, 48 h, read-out: GI
HOP-62 = test: Cytotoxicity against human HOP62 cells at 10 uM after 48 hrs by SRB assay; assay type: functional; details: HOP-62, 48 h, read-out: GI
UACC-62 = test: Cytotoxicity against human UACC62 cells at 10 uM after 48 hrs by SRB assay; assay type: functional; details: UACC-62, 48 h, read-out: GI
[2] = n-Octanol-phosphate buffer partition coefficient, log P of the compound at pH 7.4 by shake flask method; assay type: physicochemical
LOX IMVI = test: Cytotoxicity against human LOXIMVI cells at 10 uM after 48 hrs by SRB assay; assay type: functional; details: read-out: GI
HOP-92 = test: Cytotoxicity against human HOP92 cells at 10 uM after 48 hrs by SRB assay; assay type: functional; details: HOP-92, 48 h, read-out: GI
SK-OV-3 = test: Cytotoxicity against human SKOV3 cells at 10 uM after 48 hrs by SRB assay; assay type: functional; details: SK-OV-3, 48 h, read-out: GI
A498 = test: Cytotoxicity against human A498 cells at 10 uM after 48 hrs by SRB assay; assay type: functional; details: A498, 48 h, read-out: GI
OVCAR-8 = test: Cytotoxicity against human OVCAR8 cells at 10 uM after 48 hrs by SRB assay; assay type: functional; details: OVCAR-8, 48 h, read-out: GI
SN12C = test: Cytotoxicity against human SN12C cells at 10 uM after 48 hrs by SRB assay; assay type: functional; details: read-out: GI
SK-MEL-28 = test: Cytotoxicity against human SK-MEL-28 cells at 10 uM after 48 hrs by SRB assay; assay type: functional; details: SK-MEL-28, 48 h, read-out: GI
HCC 2998 = test: Cytotoxicity against human HCC2998 cells at 10 uM after 48 hrs by SRB assay; assay type: functional; details: HCC 2998, 48 h, read-out: GI
SF-295 = test: Cytotoxicity against human SF295 cells at 10 uM after 48 hrs by SRB assay; assay type: functional; details: SF-295, 48 h, read-out: GI
NCI-H522 = test: Cytotoxicity against human NCI-H522 cells at 10 uM after 48 hrs by SRB assay; assay type: functional; details: NCI-H522, 48 h, read-out: GI
MOLT-4 = test: Cytotoxicity against human MOLT4 cells at 10 uM after 48 hrs by SRB assay; assay type: functional; details: MOLT-4, 48 h, read-out: GI
TK-10 = test: Cytotoxicity against human TK10 cells at 10 uM after 48 hrs by SRB assay; assay type: functional; details: TK-10, 48 h, read-out: GI
U-251 = test: Cytotoxicity against human U251 cells at 10 uM after 48 hrs by SRB assay; assay type: functional; details: U-251, 48 h, read-out: GI
NCI/ADR-RES = test: Cytotoxicity against human NCI/ADR-RES cells at 10 uM after 48 hrs by SRB assay; assay type: functional; details: read-out: GI
RPMI-8226 = test: Cytotoxicity against human RPMI8226 cells at 10 uM after 48 hrs by SRB assay; assay type: functional; details: RPMI-8226, 48 h, read-out: GI
HT-29 = test: Cytotoxicity against human HT-29 cells at 10 uM after 48 hrs by SRB assay; assay type: functional; details: HT-29, 48 h, read-out: GI
MDA-MB-231 = test: Cytotoxicity against human MDA-MB-231 cells at 10 uM after 48 hrs by SRB assay; assay type: functional; details: MDA-MB-231, 48 h, read-out: GI

## C=CCn1c(C)nc2cc(Nc3nc(Cl)nc4ccccc34)ccc21
PC-3
  inhibition of growth at 10 µM: 19.5%
M14
  inhibition of growth at 10 µM: < 10%
SNB-19
  inhibition of growth at 10 µM: < 10%
HL-60(TB)
  inhibition of growth at 10 µM: < 10%
NCI-H23
  inhibition of growth at 10 µM: < 10%
SNB-75
  inhibition of growth at 10 µM: < 10%
MDA-MB-435
  inhibition of growth at 10 µM: < 10%
SK-MEL-5
  inhibition of growth at 10 µM: < 10%
KM12
  inhibition of growth at 10 µM: < 10%
MDA-MB-468
  inhibition of growth at 10 µM: 19.1%
COLO 205
  inhibition of growth at 10 µM: < 10%
SW-620
  inhibition of growth at 10 µM: < 10%
786-0
  inhibition of growth at 10 µM: < 10%
ACHN
  inhibition of growth at 10 µM: < 10%
SR
  inhibition of growth at 10 µM: < 10%
T47D
  inhibition of growth at 10 µM: 21.3%
IGROV-1
  inhibition of growth at 10 µM: < 10%
[1]
  inhibition of growth at 10 µM: 17.2%
OVCAR-5
  inhibition of growth at 10 µM: < 10%
UO-31
  inhibition of growth at 10 µM: 10.3%
NCI-H226
  inhibition of growth at 10 µM: 17.8%
HCT-116
  inhibition of growth at 10 µM: < 10%
HOP-62
  inhibition of growth at 10 µM: < 10%
UACC-62
  inhibition of growth at 10 µM: 10.2%
[2]
  logD: 1.17
LOX IMVI
  inhibition of growth at 10 µM: < 10%
HOP-92
  inhibition of growth at 10 µM: < 10%
SK-OV-3
  inhibition of growth at 10 µM: < 10%
A498
  inhibition of growth at 10 µM: 31.5%
OVCAR-8
  inhibition of growth at 10 µM: < 10%
SN12C
  inhibition of growth at 10 µM: < 10%
SK-MEL-28
  inhibition of growth at 10 µM: < 10%
HCC 2998
  inhibition of growth at 10 µM: < 10%
SF-295
  inhibition of growth at 10 µM: 10.3%
NCI-H522
  inhibition of growth at 10 µM: < 10%
MOLT-4
  inhibition of growth at 10 µM: < 10%
TK-10
  inhibition of growth at 10 µM: < 10%
U-251
  inhibition of growth at 10 µM: < 10%
NCI/ADR-RES
  inhibition of growth at 10 µM: 10.5%
RPMI-8226
  inhibition of growth at 10 µM: 22.3%
HT-29
  inhibition of growth at 10 µM: < 10%
MDA-MB-231
  inhibition of growth at 10 µM: 14.5%

## C=CCn1c(C)nc2ccc(Nc3nc(Cl)nc4ccccc34)cc21
PC-3
  inhibition of growth at 10 µM: 18%
M14
  inhibition of growth at 10 µM: < 10%
SNB-19
  inhibition of growth at 10 µM: < 10%
HL-60(TB)
  inhibition of growth at 10 µM: 15.9%
NCI-H23
  inhibition of growth at 10 µM: < 10%
SNB-75
  inhibition of growth at 10 µM: < 10%
MDA-MB-435
  inhibition of growth at 10 µM: < 10%
SK-MEL-5
  inhibition of growth at 10 µM: < 10%
KM12
  inhibition of growth at 10 µM: < 10%
MDA-MB-468
  inhibition of growth at 10 µM: 16.3%
COLO 205
  inhibition of growth at 10 µM: < 10%
SW-620
  inhibition of growth at 10 µM: < 10%
786-0
  inhibition of growth at 10 µM: 12.2%
ACHN
  inhibition of growth at 10 µM: < 10%
SR
  inhibition of growth at 10 µM: < 10%
T47D
  inhibition of growth at 10 µM: 18.5%
IGROV-1
  inhibition of growth at 10 µM: < 10%
[1]
  inhibition of growth at 10 µM: < 10%
OVCAR-5
  inhibition of growth at 10 µM: < 10%
UO-31
  inhibition of growth at 10 µM: < 10%
NCI-H226
  inhibition of growth at 10 µM: < 10%
HCT-116
  inhibition of growth at 10 µM: < 10%
HOP-62
  inhibition of growth at 10 µM: < 10%
UACC-62
  inhibition of growth at 10 µM: < 10%
[2]
  logD: 2.1
LOX IMVI
  inhibition of growth at 10 µM: < 10%
HOP-92
  inhibition of growth at 10 µM: < 10%
SK-OV-3
  inhibition of growth at 10 µM: < 10%
A498
  inhibition of growth at 10 µM: 44.5%
OVCAR-8
  inhibition of growth at 10 µM: < 10%
SN12C
  inhibition of growth at 10 µM: < 10%
SK-MEL-28
  inhibition of growth at 10 µM: < 10%
HCC 2998
  inhibition of growth at 10 µM: < 10%
SF-295
  inhibition of growth at 10 µM: 15.2%
NCI-H522
  inhibition of growth at 10 µM: < 10%
MOLT-4
  inhibition of growth at 10 µM: 21.3%
TK-10
  inhibition of growth at 10 µM: < 10%
U-251
  inhibition of growth at 10 µM: < 10%
NCI/ADR-RES
  inhibition of growth at 10 µM: < 10%
RPMI-8226
  inhibition of growth at 10 µM: 24.7%
HT-29
  inhibition of growth at 10 µM: < 10%
MDA-MB-231
  inhibition of growth at 10 µM: 10.1%
